Results on four molecules are retold here after US20130143812A1, “ANTI-INFLAMMATORY DRUG” (SEKISUI MEDICAL CO., LTD., priority 2010, published 2013).

For assay [1], the system named is RAW264.7 cells. Kind of assay: Macrophage marker expression in RAW264.7 cells with activin A, activin B or SB431542 and palmitic acid. The class given is cell-based. Conditions: for expression level of IL-6 / expression level of MCP-1 / expression level of arginase-1: compared to control. Here is the method:
(1) Induction of Macrophages by Activin Species Activin A (10 ng/mL), activin B (10 ng/mL), and SB431542 (0.1 to 1 μM) were added to RAW264.7 cells in combination as depicted in FIG. 4. Human Recombinant (R&D Systems, 338AC005) and Recombinant (R&D Systems, 659AB005) were used for activin A and activin B, respectively. After 30 minutes, palmitic acid (a proinflammatory substance) was added to the final concentration of 200 μM and, after eight hours, RNeasy Mini Kit (250) (Qiagen, Cat. Number 74106) was used for recovering the cells to extract RNA. The RNA extracted at step (1) was used for performing a reverse transcription reaction in accordance with the protocol of High Capacity cDNA Reverse Transcription Kit with RNase Inhibitor (ABI) to perform TaqMan PCR. Arginase-1 was selected as an M2 macrophage marker and IL-6 and MCP-1 were selected as M1 macrophage markers to create respective TaqMan probes. Analysis was performed in the same way as the expression analysis of macrophage markers of Example 1.

In assay [2] the test system is RAW264.7 cells. Kind of assay: Expression of M2 macrophage markers in RAW264.7 cells cultured with activin A and SB431542. The settings on record: SB431542 0.1 to 1 μM added with activin A, 24 hours. The class given is cell-based. Here is the method:
Activin A (10 ng/mL or 30 ng/mL) and SB431542 (0.1 to 1 μM, Santa Cruz Biotechnology, Inc., sc-204265) were added to RAW264.7 cells in combination as depicted in FIG. 2. Human Recombinant (R&D Systems, 338AC005) was used for activin A. After 24 hours, RNeasy Mini Kit (250) (Qiagen, Cat. Number 74106) was used for recovering the cells to extract RNA. The RNA extracted at step (1) was used for performing a reverse transcription reaction in accordance with the protocol of High Capacity cDNA Reverse Transcription Kit with RNase Inhibitor (ABI) to perform TaqMan PCR. Arginase-1, Mrc2 (mannose receptor 2), and IL-10 were selected as M2 macrophage markers to create respective TaqMan probes.

Assay [3] relates to RAW264.7 cells. The assay can be described thus: Macrophage marker expression in RAW264.7 cells with activin A, activin B or Fstl3 and palmitic acid. Format: cell-based. Conditions: palmitic acid 200 μM. The procedure:
Activin A (10 ng/mL), activin B (10 ng/mL), and Fstl3 (3 to 30 ng/mL) were added to RAW264.7 cells in combination as depicted in FIG. 5. Human Recombinant (R&D Systems, 338AC005), Recombinant (R&D Systems, 659AB005), and Follistatin-like 3 Recombinant (R&D Systems, 1255F3025) were used for activin A, activin B, and Fstl3, respectively. After 30 minutes, palmitic acid (a proinflammatory substance) was added to the final concentration of 200 μM and, after eight hours, RNeasy Mini Kit (250) (Qiagen, Cat. Number 74106) was used for recovering the cells to extract RNA.
Analysis was performed in the same way as Example 4. For each of palmitic acid, activin species, and Fstl3, the expression level is represented by a ratio when a measurement value of each marker relative to a measurement value of cyclophilin A in non-additive control is defined as one.

The test system of assay [4] is RAW264.7 cells. The assay can be described thus: Expression of M2 and M1 macrophage markers in RAW264.7 cells cultured with activin A or activin B (TaqMan PCR). The settings on record: 10 or 30 ng/mL added individually, 8 hours. The class given is cell-based. The procedure:
Each of activin A (10 ng/mL or 30 ng/mL) and activin B (10 ng/mL or 30 ng/mL) was individually added to RAW264.7 cells. Human Recombinant (R&D Systems, 338AC005) and Recombinant (R&D Systems, 659AB005) were used for activin A and activin B, respectively. After eight hours, RNeasy Mini Kit (250) (Qiagen, Cat. Number 74106) was used for recovering the cells to extract RNA.
The RNA extracted at step (1) was used for performing a reverse transcription reaction in accordance with the protocol of High Capacity cDNA Reverse Transcription Kit with RNase Inhibitor (ABI) to perform TagMan PCR. Arginase-1 was selected as an M2 macrophage marker and IL-6 and MCP-1 were selected as M1 macrophage markers to create respective TaqMan probes. Each of mRNA expression levels is represented by a multiple when an expression level of cyclophilin A mRNA in the same sample is defined as one (hereinafter, the same applies to the examples using TaqMan PCR unless otherwise stated).
Background: Quantitative PCR measures a nucleic acid by following its amplification.

The next assay concerns db/db mice. Kind of assay: Arginase-1 mRNA expression in visceral fat of db/db mice given recombinant adenovirus. The class given is in vivo. Conditions: activin expressed by recombinant adenovirus via tail vein once a week for two weeks, compared to control. The text has this:
(§1) Full-length mouse inhibin βA cDNA or full-length mouse inhibin βB cDNA was amplified by using pcDNA3.1/V5-HisA (Invitrogen) in accordance with the recommended method. The amplified product was subjected to HindIII and EcoRV treatments and used for production of recombinant adenovirus. The recombinant adenovirus of inhibin βA or inhibin βB was produced by using Takara Adenovirus Expression Vector Kit (Takara) in accordance with the recommended method. For negative control, β-galactosidase-gene-containing virus attached to the kit was used. The adenovirus was transfected to HEK293 cells by using CellPhect (registered trademark) Transfection Kit (GE Healthcare) with the calcium phosphate method.
After seven-week-old male db/db mice were adapted for one week, 5.0×10^11 pfu/mL of the recombinant adenovirus was lysed in 150 μL of PBS and administered from the tail vein once a week for two weeks. Visceral fat was collected on seventh day after the second administration for performing a reverse transcription reaction in accordance with the protocol of High Capacity cDNA Reverse Transcription Kit with RNase Inhibitor (ABI) and the expression analysis of arginase-1 was performed with TaqMan PCR.

Assay [5] concerns high-fat diet-fed B6 mice. Kind of assay: Arginase-1 mRNA expression in visceral fat of high-fat diet-fed B6 mice given recombinant adenovirus. Format: in vivo. The settings on record: twelve-week high-fat diet B6 mice, activin expressed by recombinant adenovirus via tail vein once a week for two weeks.
Description: as §1
After five-week-old male B6 mice were adapted with normal diet for one week, high-fat diet was fed for twelve weeks. The recombinant adenovirus (5.0×10^11 pfu/mL) was lysed in 150 μL of PBS and administered to mice in the 18th week from the tail vein once a week for two weeks. Visceral fat was collected on seventh day after the second administration for performing reverse transcription in accordance with the protocol of High Capacity cDNA Reverse Transcription Kit with RNase Inhibitor (ABI) and the expression analysis of arginase-1 was performed with TaqMan PCR.

The subject of assay [6] is high-fat diet-fed B6 mice. Kind of assay: Glucose tolerance test (GTT) in high-fat diet-fed B6 mice given recombinant adenovirus. Format: in vivo. Conditions: activin expressed by recombinant adenovirus, glucose 1.0 mg/g-BW into abdominal cavity. The procedure: Adenovirus was produced in the same way as the production of recombinant adenovirus in Example 3.
After five-week-old male B6 mice were adapted with normal diet for one week, high-fat diet was fed for twelve weeks. The recombinant adenovirus (5.0×10^11 pfu/mL) was lysed in 150 μL of PBS and administered to mice in the 18th week from the tail vein once a week for two weeks. A glucose tolerance test (GTT) was performed on seventh day after the second administration.
The GTT was performed as follows. Into the abdominal cavities of mice fasted for 16 hours from the previous day of the test, 1.0 mg/g-BW of glucose (diluted by physiological saline) was administered. Serum was separated from collected whole blood and glucose concentration was measured by Glucose-Test Wako (manufactured by Wako Pure Chemical Industries).

For assay [7], the system named is RAW264.7 cells. The assay can be described thus: Arginase-1 expression in RAW264.7 cells with activin A, Fstl3, anti-Fstl3 antibody or mouse IgG and palmitic acid. Format: cell-based. The settings on record: Fstl3 30 ng/mL present with activin A 10 ng/mL, palmitic acid 200 μM. The procedure: Fstl3 (30 ng/mL), an anti-Fstl3 antibody or mouse IgG (0.3 to 10 μg/mL), and activin A (10 ng/mL) were added to RAW264.7 cells in combination as depicted in FIG. 6. Human Recombinant (R&D Systems, 338AC005), Recombinant (R&D Systems, 659AB005), and Follistatin-like 3 Recombinant (R&D Systems, 1255F3025) were used for activin A, activin B, and Fstl3, respectively. After 30 minutes, palmitic acid (a proinflammatory substance) was added to the final concentration of 200 μM and, after eight hours, RNeasy Mini Kit (250) (Qiagen, Cat. Number 74106) was used for recovering the cells to extract RNA.
The RNA extracted at step (1) was used for performing a reverse transcription reaction in accordance with the protocol of High Capacity cDNA Reverse Transcription Kit with RNase Inhibitor (ABI) to perform TaqMan PCR. Arginase-1 was selected as an M2 macrophage marker to create TaqMan probes.

[8] abbreviates: SB431542 0.1 to 1 μM with palmitic acid 200 μM, absence of activin species.
[9] abbreviates: SB431542 0.1 to 1 μM, activin A 10 ng/mL and palmitic acid 200 μM present.
Where [10] appears, read: SB431542 0.1 to 1 μM, activin B 10 ng/mL and palmitic acid 200 μM present.
[11] abbreviates: SB431542 only (0.1 to 1 μM), without palmitic acid.
Where [12] appears, read: palmitic acid 200 μM, absence of activin species, 8 hours.
Setting [13] is: activin 10 ng/mL, palmitic acid 200 μM, 8 hours.

Take `NC(=O)c1ccc(-c2nc(-c3ccc4c(c3)OCO4)c(-c3ccccn3)[nH]2)cc1` [SB431542]: in the assay on RAW264.7 cells [1] (setting [8]), the “expression level of IL-6, effect of SB431542” value is “constantly increased depending on the additive concentration” and the “palmitic acid-induced increase of MCP-1 expression, effect of SB431542” value (shortened to “palmitic acid-induced increase”) was “not changed”. Besides, in the assay with RAW264.7 cells [1] (setting [9]), the “expression level of IL-6, effect of SB431542” value is on record as “constantly increased depending on the additive concentration”; the “expression level of arginase-1, effect of SB431542” value is “reduced depending on the additive concentration”; the “palmitic acid-induced increase” value was “not changed”. Also, in the assay on RAW264.7 cells [1] (setting [10]), the “expression level of IL-6, effect of SB431542” value is reported as “constantly increased depending on the additive concentration”; the “expression level of arginase-1, effect of SB431542” value is “reduced depending on the additive concentration”; the “palmitic acid-induced increase” value is listed as “not changed”. Moreover, in the assay with RAW264.7 cells [1] (setting [11]), the “expression level of IL-6” value is on record as “not changed or were slightly changed”, the “expression level of MCP-1” value is on record as “not changed or were slightly changed” and the “expression level of arginase-1” value is “not changed or were slightly changed”. Further, the “activin A-induced increase in expression of arginase-1, Mrc2 and IL-10” value with RAW264.7 cells [2] is “reduced to the same level as control”.

Turning to `CCCCCCCCCCCCCCCC(=O)O` [palmitic acid], in the assay with RAW264.7 cells [1] (setting [12]), the “expression level of IL-6” value is reported as “remarkably increased”, the “expression level of MCP-1” value is “remarkably increased” and the “expression level of arginase-1” value is recorded as “not changed or was slightly changed”. Moreover, in the assay with RAW264.7 cells [3] (8 hours), the “expression of IL-6, effect of palmitic acid” value is recorded as “increased”. Besides, in the assay with RAW264.7 cells [3] (regardless of the presence of activin species, change negligible), the “expression of MCP1, effect of palmitic acid” value is given as “increased”.

B1: activin B: Recombinant (R&D Systems, 659AB005); in Examples 3 and 7 expressed by inhibin βB recombinant adenovirus (protein, UniProt P09529 293-407, looked up)
Inhibin beta B chain: GLECDGRTNLCCRQQFFIDFRLIGWNDWIIAPTGYYGNYCEGSCPAYLAGVPGSASSFHTAVVNQYRMRGLNPGTVNSCCIPTKLSTMSMLYFDDEYNIVKRDVPNMIVEECGCA
modifications: Inhibin beta B chain homodimer
For B1, the “expression level of arginase-1” value with RAW264.7 cells [1] (activin 10 ng/mL present, palmitic acid 200 μM added, 8 hours) is “remarkably increased”. Also, in the assay on RAW264.7 cells [1] (setting [13]), the “expression level of MCP-1, effect of activin addition” value is “not changed” and the “expression of IL-6, effect of activin addition” value was “slightly reduced”. For the same molecule, in the assay with RAW264.7 cells [4], the “expression level of IL-6 (M1 macrophage marker)” value is recorded as “not changed” and the “expression level of MCP-1 (M1 macrophage marker)” value was “not changed”. Moreover, the “expression of arginase-1 (M2 macrophage marker)” value in the assay on RAW264.7 cells [4] (mRNA relative to cyclophilin A) is on record as “remarkably increased”. Also, the “expression of arginase-1 in visceral fat” value in the assay on db/db mice was “remarkably increased”. For the same molecule, the “expression level of arginase-1 in visceral fat” value in assay [5] is recorded as “similarly increased”. Moreover, the “glucose metabolism in glucose tolerance test (GTT)” value in assay [6] was “improved glucose metabolism”.

B2: Fstl3: Follistatin-like 3 Recombinant (R&D Systems, 1255F3025); binds to activins and inhibits binding to their receptor (protein, UniProt O95633 27-263, looked up)
Follistatin-related protein 3: MGSGNPAPGGVCWLQQGQEATCSLVLQTDVTRAECCASGNIDTAWSNLTHPGNKINLLGFLGLVHCLPCKDSCDGVECGPGKACRMLGGRPRCECAPDCSGLPARLQVCGSDGATYRDECELRAARCRGHPDLSVMYRGRCRKSCEHVVCPRPQSCVVDQTGSAHCVVCRAAPCPVPSSPGQELCGNNNVTYISSCHMRQATCFLGRSIGVRHAGSCAGTPEEPPGGESAEEEENFV
In the case of B2, the “expression level of arginase-1, effect of FSTL3” value with RAW264.7 cells [7] is recorded as “reduced to the same level as the control”. Besides, the “expression of arginase-1, effect of Fstl3” value in the assay with RAW264.7 cells [3] (Fstl3 30 ng/mL added concurrently with activin A 10 ng/mL) is recorded as “reduced”. In addition, the “expression level of MCP1, effect of FSTL3” value with RAW264.7 cells [3] (Fstl3 3 to 30 ng/mL) is given as “not changed”.
